Laboratory results as given in BindingDB's records for patent US10821115 (Amgen, 2020).
“And” between values parts separate entries of the source, which are not always exact repeats. Equal values may be shown once.

What follows are compounds tested against T1, Induced myeloid leukemia cell differentiation protein Mcl-1 [171-327] (Homo sapiens, UniProt Q07820) (assay: Time-Resolved Fluorescence Resonance Energy Transfer (TR-FRET) Assay).
T1 construct: 171-327
T1 sequence (Q07820 171-327): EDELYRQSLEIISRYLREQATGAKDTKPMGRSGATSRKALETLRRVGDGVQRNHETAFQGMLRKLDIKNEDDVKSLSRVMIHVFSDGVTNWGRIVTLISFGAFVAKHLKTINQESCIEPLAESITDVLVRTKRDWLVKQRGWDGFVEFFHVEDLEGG
Method: The inhibition of the Mcl-1/Bim interaction was measured using a time-resolved fluorescence resonance energy transfer (TR-FRET) assay. […] A biotinylated peptide derived from human Bim (residues 51-76) was purchased from CPC Scientific (San Jose, Calif.). The TR-FRET assay was conducted in a 384-well white OptiPlate (PerkinElmer, Waltham, Mass.) in a total volume of 40 uL. […] The reaction plates were further incubated overnight and then were read on an Envision multimode reader (PerkinElmer). […] The IC50 values of test compounds were determined from duplicate data by analyzing competition curves using a four-parameter sigmoidal model in GraphPad Prism.

SMILES	IC50
C[C@@H]1[C@@H](C)C/C=C/[C@@](O)(c2ccc(F)nc2)[C@@H]2CC[C@H]2CN2C[C@@]3(CCCc4cc(Cl)ccc43)COc3ccc(cc32)C(=O)NS1(=O)=O (single isomer, unassigned) [US10821115, Example 100420]	0.112 nM
CO[C@@]1(CN2CCN(CCS(C)(=O)=O)CC2)/C=C/C[C@H](C)[C@@H](C)S(=O)(=O)NC(=O)c2ccc3c(c2)N(C[C@@H]2CC[C@H]21)C[C@@]1(CCCc2cc(Cl)ccc21)CO3 [US10821115, Example 81]	0.14 nM
CO[C@]1(CN2CCN(CC(F)(F)F)CC2)/C=C/C[C@H](C)[C@@H](C)S(=O)(=O)NC(=O)c2ccc3c(c2)N(C[C@@H]2CC[C@H]21)C[C@@]1(CCCc2cc(Cl)ccc21)CO3 [US10821115, Example 93]	0.53 nM
CCO[C@]1(CN2CCN(C(COC)COC)CC2)/C=C/C[C@H](C)[C@@H](C)S(=O)(=O)NC(=O)c2ccc3c(c2)N(C[C@@H]2CC[C@H]21)C[C@@]1(CCCc2cc(Cl)ccc21)CO3 [US10821115, Example 116]	0.244 nM
CO[C@@]1(CN2CCN(C3CCOCC3)CC2)/C=C/C[C@H](C)[C@@H](C)S(=O)(=O)NC(=O)c2ccc3c(c2)N(C[C@@H]2CC[C@H]21)C[C@@]1(CCCc2cc(Cl)ccc21)CO3 [US10821115, Example 262]	0.093 nM
CO[C@@]1(CN2CCC(N3CCOCC3)CC2)/C=C/C[C@H](C)[C@@H](C)S(=O)(=O)NC(=O)c2ccc3c(c2)N(C[C@@H]2CC[C@H]21)C[C@@]1(CCCc2cc(Cl)ccc21)CO3 [US10821115, Example 263]	0.147 nM
CO[C@@]1(CN2CCN([C@H]3CCOC(=O)C3)CC2)/C=C/C[C@H](C)[C@@H](C)S(=O)(=O)NC(=O)c2ccc3c(c2)N(C[C@@H]2CC[C@H]21)C[C@@]1(CCCc2cc(Cl)ccc21)CO3 [US10821115, Example 271]	0.031 nM
CO[C@@]1(CN2CCN([C@H](CCO)CC(=O)O)CC2)/C=C/C[C@H](C)[C@@H](C)S(=O)(=O)NC(=O)c2ccc3c(c2)N(C[C@@H]2CC[C@H]21)C[C@@]1(CCCc2cc(Cl)ccc21)CO3 [US10821115, Example 278]	0.039 nM
COCC(COC)N1CCN(C[C@]2(OC)/C=C/C[C@H](C)[C@@H](C)S(=O)(=O)NC(=O)c3ccc4c(c3)N(C[C@@H]3CC[C@H]32)C[C@@]2(CCCc3cc(Cl)ccc32)CO4)CC1 [US10821115, Example 287]	0.137 nM
COCCN(CCOC)C1CCN(C[C@]2(OC)/C=C/C[C@H](C)[C@@H](C)S(=O)(=O)NC(=O)c3ccc4c(c3)N(C[C@@H]3CC[C@H]32)C[C@@]2(CCCc3cc(Cl)ccc32)CO4)CC1 [US10821115, Example 308]	0.111 nM
CO[C@@]1(CN2CCN(CC(CO)CO)CC2)/C=C/C[C@H](C)[C@@H](C)S(=O)(=O)NC(=O)c2ccc3c(c2)N(C[C@@H]2CC[C@H]21)C[C@@]1(CCCc2cc(Cl)ccc21)CO3 [US10821115, Example 310]	0.117 nM
CCO[C@@]1(CN2CCN(C3(C)COC3)CC2)/C=C/C[C@H](C)[C@@H](C)S(=O)(=O)NC(=O)c2ccc3c(c2)N(C[C@@H]2CC[C@H]21)C[C@@]1(CCCc2cc(Cl)ccc21)CO3 [US10821115, Example 311]	0.324 nM
CCO[C@@]1(CN2CCC(N(CCOC)CCOC)CC2)/C=C/C[C@H](C)[C@@H](C)S(=O)(=O)NC(=O)c2ccc3c(c2)N(C[C@@H]2CC[C@H]21)C[C@@]1(CCCc2cc(Cl)ccc21)CO3 [US10821115, Example 312]	0.576 nM
CO[C@]1(CN2CCN(C3(C)COC3)CC2)/C=C/C[C@H](C)[C@@H](C)S(=O)(=O)NC(=O)c2ccc3c(c2)N(C[C@@H]2CC[C@H]21)C[C@@]1(CCCc2cc(Cl)ccc21)CO3 [US10821115, Example 319]	0.081 nM
CO[C@@]1(CC(=O)N(C)C)/C=C/C[C@H](C)[C@@H](C)S(=O)(=O)NC(=O)c2ccc3c(c2)N(C[C@@H]2CC[C@H]21)C[C@@]1(CCCc2cc(Cl)ccc21)CO3 [US10821115, Example 100135]	0.173 nM
CO[C@]1(c2cccnc2F)/C=C/C[C@H](C)[C@@H](C)S(=O)(=O)NC(=O)c2ccc3c(c2)N(C[C@@H]2CC[C@H]21)C[C@@]1(CCCc2cc(Cl)ccc21)CO3 [US10821115, Example 100324]	0.244 nM and 0.182 nM
CO[C@]1(c2cccc(F)n2)/C=C/C[C@H](C)[C@@H](C)S(=O)(=O)NC(=O)c2ccc3c(c2)N(C[C@@H]2CC[C@H]21)C[C@@]1(CCCc2cc(Cl)ccc21)CO3 [US10821115, Example 100339]	0.779 nM
CCN(CC)C(=O)C[C@]1(OC)/C=C/C[C@H](C)[C@@H](C)S(=O)(=O)NC(=O)c2ccc3c(c2)N(C[C@@H]2CC[C@H]21)C[C@@]1(CCCc2cc(Cl)ccc21)CO3 [US10821115, Example 100347]	0.689 nM
CO[C@@]1(c2cccnn2)/C=C/C[C@H](C)[C@@H](C)S(=O)(=O)N(C)C(=O)c2ccc3c(c2)N(C[C@@H]2CC[C@H]21)C[C@@]1(CCCc2cc(Cl)ccc21)CO3 [US10821115, Example 100350]	0.489 nM
CO[C@@]1(CC(=O)N(C)C2CC2)/C=C/C[C@H](C)[C@@H](C)S(=O)(=O)NC(=O)c2ccc3c(c2)N(C[C@@H]2CC[C@H]21)C[C@@]1(CCCc2cc(Cl)ccc21)CO3 [US10821115, Example 100374]	0.289 nM
C[C@@H]1[C@@H](C)C/C=C/[C@](O)(C#CCCc2ccccn2)[C@@H]2CC[C@H]2CN2C[C@@]3(CCCc4cc(Cl)ccc43)COc3ccc(cc32)C(=O)NS1(=O)=O [US10821115, Example 100455]	0.087 nM
CO[C@@]1(CC(=O)NCCO)/C=C/C[C@H](C)[C@@H](C)S(=O)(=O)NC(=O)c2ccc3c(c2)N(C[C@@H]2CC[C@H]21)C[C@@]1(CCCc2cc(Cl)ccc21)CO3 [US10821115, Example 100465]	0.121 nM
COC(=O)C(C)(C)NC(=O)C[C@]1(OC)/C=C/C[C@H](C)[C@@H](C)S(=O)(=O)NC(=O)c2ccc3c(c2)N(C[C@@H]2CC[C@H]21)C[C@@]1(CCCc2cc(Cl)ccc21)CO3 [US10821115, Example 100544]	0.171 nM
CO[C@@]1(CC(=O)NC(C)(C)C(=O)O)/C=C/C[C@H](C)[C@@H](C)S(=O)(=O)NC(=O)c2ccc3c(c2)N(C[C@@H]2CC[C@H]21)C[C@@]1(CCCc2cc(Cl)ccc21)CO3 [US10821115, Example 100546]	0.084 nM
COC(=O)CNC(=O)C[C@]1(OC)/C=C/C[C@H](C)[C@@H](C)S(=O)(=O)NC(=O)c2ccc3c(c2)N(C[C@@H]2CC[C@H]21)C[C@@]1(CCCc2cc(Cl)ccc21)CO3 [US10821115, Example 100550]	0.059 nM
CO[C@@]1(CC(=O)NCc2ncco2)/C=C/C[C@H](C)[C@@H](C)S(=O)(=O)NC(=O)c2ccc3c(c2)N(C[C@@H]2CC[C@H]21)C[C@@]1(CCCc2cc(Cl)ccc21)CO3 [US10821115, Example 100577]	0.045 nM
COC(=O)[C@H](NC(=O)C[C@]1(OC)/C=C/C[C@H](C)[C@@H](C)S(=O)(=O)NC(=O)c2ccc3c(c2)N(C[C@@H]2CC[C@H]21)C[C@@]1(CCCc2cc(Cl)ccc21)CO3)[C@@H](C)O [US10821115, Example 100581]	0.363 nM
CO[C@@]1(CC(N)=O)/C=C/C[C@H](C)[C@@H](C)S(=O)(=O)NC(=O)c2ccc3c(c2)N(C[C@@H]2CC[C@H]21)C[C@@]1(CCCc2cc(Cl)ccc21)CO3 [US10821115, Example 100589]	1.83 nM
